Assay results from the NIST ThermoML archive (doi:10.1021/je101130e).
± gives the expanded uncertainty stated by the source.

How the values were obtained:
[1] = mn = molality of the nth substance listed, in mol/kg; conditions: 298.15 K, 101 kPa, Liquid, Vibrating tube method
[2] = cn = amount concentration of the nth substance listed, in mol/dm3; conditions: 101 kPa, Liquid, Alternating current cell with electrodes

CCOS(=O)(=O)[O-].CCn1cc[n+](C)c1 [1-ethyl-3-methylimidazolium ethyl sulfate] + CC#N
[1]
Conditions | mass density [kg/m3]
m1 = 0.006546 | 777.183 ± 10
m1 = 0.1445 | 788.755 ± 10

molar conductivity [S·m2/mol], [2]
Conditions | 273.15 K | 278.15 K | 283.15 K | 288.15 K | 293.15 K | 298.15 K | 303.15 K | 308.15 K | 313.15 K
c1 = 0.3706 | 0.01282 ± 1.3e-05 | 0.01356 ± 1.4e-05 | 0.014309 ± 1.4e-05 | 0.015072 ± 1.5e-05 | 0.01584 ± 1.6e-05 | 0.01663 ± 1.7e-05 | 0.017423 ± 1.7e-05 | 0.018226 ± 1.8e-05 | 0.019045 ± 1.9e-05
c1 = 0.7493 | 0.01255 ± 1.3e-05 | 0.01327 ± 1.3e-05 | 0.014004 ± 1.4e-05 | 0.01475 ± 1.5e-05 | 0.0155 ± 1.6e-05 | 0.016262 ± 1.6e-05 | 0.01704 ± 1.7e-05 | 0.01782 ± 1.8e-05 | 0.01862 ± 1.9e-05
c1 = 1.176 | 0.012313 ± 1.2e-05 | 0.013021 ± 1.3e-05 | 0.01374 ± 1.4e-05 | 0.01447 ± 1.5e-05 | 0.015211 ± 1.5e-05 | 0.01596 ± 1.6e-05 | 0.01672 ± 1.7e-05 | 0.017492 ± 1.7e-05 | 0.018273 ± 1.8e-05
c1 = 1.698 | 0.012085 ± 1.2e-05 | 0.01278 ± 1.3e-05 | 0.013489 ± 1.3e-05 | 0.014207 ± 1.4e-05 | 0.01493 ± 1.5e-05 | 0.01567 ± 1.6e-05 | 0.016414 ± 1.6e-05 | 0.017171 ± 1.7e-05 | 0.01794 ± 1.8e-05
c1 = 2.185 | 0.01189 ± 1.2e-05 | 0.01258 ± 1.3e-05 | 0.013276 ± 1.3e-05 | 0.01398 ± 1.4e-05 | 0.0147 ± 1.5e-05 | 0.01542 ± 1.5e-05 | 0.016154 ± 1.6e-05 | 0.0169 ± 1.7e-05 | 0.01765 ± 1.8e-05
c1 = 2.695 | 0.01172 ± 1.2e-05 | 0.012392 ± 1.2e-05 | 0.013078 ± 1.3e-05 | 0.01377 ± 1.4e-05 | 0.01448 ± 1.5e-05 | 0.01519 ± 1.5e-05 | 0.01591 ± 1.6e-05 | 0.01664 ± 1.7e-05 | 0.017386 ± 1.7e-05
c1 = 3.269 | 0.01154 ± 1.2e-05 | 0.012206 ± 1.2e-05 | 0.01288 ± 1.3e-05 | 0.01357 ± 1.4e-05 | 0.014261 ± 1.4e-05 | 0.01496 ± 1.5e-05 | 0.01567 ± 1.6e-05 | 0.016396 ± 1.6e-05 | 0.017125 ± 1.7e-05
c1 = 3.882 | 0.011371 ± 1.1e-05 | 0.012029 ± 1.2e-05 | 0.0127 ± 1.3e-05 | 0.01337 ± 1.3e-05 | 0.014054 ± 1.4e-05 | 0.01475 ± 1.5e-05 | 0.015446 ± 1.5e-05 | 0.016155 ± 1.6e-05 | 0.01687 ± 1.7e-05
c1 = 4.671 | 0.01117 ± 1.1e-05 | 0.01182 ± 1.2e-05 | 0.01247 ± 1.3e-05 | 0.013136 ± 1.3e-05 | 0.01381 ± 1.4e-05 | 0.01449 ± 1.5e-05 | 0.015177 ± 1.5e-05 | 0.01588 ± 1.6e-05 | 0.01658 ± 1.7e-05
c1 = 5.374 | 0.011016 ± 1.1e-05 | 0.01165 ± 1.2e-05 | 0.0123 ± 1.2e-05 | 0.01295 ± 1.3e-05 | 0.01362 ± 1.4e-05 | 0.014287 ± 1.4e-05 | 0.01497 ± 1.5e-05 | 0.01566 ± 1.6e-05 | 0.01635 ± 1.6e-05
c1 = 5.987 | 0.01089 ± 1.1e-05 | 0.01152 ± 1.2e-05 | 0.012165 ± 1.2e-05 | 0.01281 ± 1.3e-05 | 0.01347 ± 1.3e-05 | 0.014134 ± 1.4e-05 | 0.0148 ± 1.5e-05 | 0.01549 ± 1.6e-05 | 0.016173 ± 1.6e-05
c1 = 6.546 | 0.01079 ± 1.1e-05 | 0.011417 ± 1.1e-05 | 0.012051 ± 1.2e-05 | 0.01269 ± 1.3e-05 | 0.013343 ± 1.3e-05 | 0.014 ± 1.4e-05 | 0.01467 ± 1.5e-05 | 0.015338 ± 1.5e-05 | 0.016021 ± 1.6e-05

CCOS(=O)(=O)[O-].CCn1cc[n+](C)c1 [1-ethyl-3-methylimidazolium ethyl sulfate] + ClCCl
molar conductivity [S·m2/mol], [2]
Conditions | 273.15 K | 278.15 K | 283.15 K | 288.15 K | 293.15 K | 298.15 K | 303.15 K | 308.15 K
c1 = 0.5399 | 0.0004064 ± 4e-07 | 0.0004194 ± 4e-07 | 0.0004324 ± 4e-07 | 0.0004454 ± 4e-07 | 0.0004554 ± 5e-07 | 0.000462 ± 5e-07 | 0.000471 ± 5e-07 | 0.0004771 ± 5e-07
c1 = 0.8656 | 0.0003364 ± 3e-07 | 0.0003471 ± 4e-07 | 0.0003579 ± 4e-07 | 0.0003684 ± 4e-07 | 0.0003768 ± 4e-07 | 0.0003829 ± 4e-07 | 0.0003904 ± 4e-07 | 0.0003958 ± 4e-07
c1 = 1.152 | 0.0003033 ± 3e-07 | 0.0003131 ± 3e-07 | 0.0003228 ± 3e-07 | 0.0003322 ± 3e-07 | 0.0003398 ± 3e-07 | 0.0003455 ± 3e-07 | 0.0003521 ± 4e-07 | 0.0003571 ± 4e-07
c1 = 1.504 | 0.0002764 ± 3e-07 | 0.0002855 ± 3e-07 | 0.0002943 ± 3e-07 | 0.0003028 ± 3e-07 | 0.0003098 ± 3e-07 | 0.0003152 ± 3e-07 | 0.0003212 ± 3e-07 | 0.0003258 ± 3e-07
c1 = 1.808 | 0.0002603 ± 3e-07 | 0.0002689 ± 3e-07 | 0.0002772 ± 3e-07 | 0.0002852 ± 3e-07 | 0.0002918 ± 3e-07 | 0.0002971 ± 3e-07 | 0.0003029 ± 3e-07 | 0.0003073 ± 3e-07
c1 = 2.099 | 0.0002493 ± 3e-07 | 0.0002575 ± 3e-07 | 0.0002653 ± 3e-07 | 0.000273 ± 3e-07 | 0.0002794 ± 3e-07 | 0.0002845 ± 3e-07 | 0.00029 ± 3e-07 | 0.0002942 ± 3e-07
c1 = 2.376 | 0.0002409 ± 2e-07 | 0.0002489 ± 3e-07 | 0.0002566 ± 3e-07 | 0.000264 ± 3e-07 | 0.0002702 ± 3e-07 | 0.0002753 ± 3e-07 | 0.0002806 ± 3e-07 | 0.0002849 ± 3e-07
c1 = 2.723 | 0.0002334 ± 2e-07 | 0.0002412 ± 2e-07 | 0.0002486 ± 3e-07 | 0.0002557 ± 3e-07 | 0.0002618 ± 3e-07 | 0.0002668 ± 3e-07 | 0.000272 ± 3e-07 | 0.0002762 ± 3e-07
c1 = 3.074 | 0.0002276 ± 2e-07 | 0.0002352 ± 2e-07 | 0.0002425 ± 2e-07 | 0.0002494 ± 3e-07 | 0.0002554 ± 3e-07 | 0.0002604 ± 3e-07 | 0.0002655 ± 3e-07 | 0.0002698 ± 3e-07
c1 = 3.333 | 0.000224 ± 2e-07 | 0.0002315 ± 2e-07 | 0.0002387 ± 2e-07 | 0.0002455 ± 3e-07 | 0.0002514 ± 3e-07 | 0.0002564 ± 3e-07 | 0.0002615 ± 3e-07 | 0.0002657 ± 3e-07
c1 = 3.607 | 0.0002213 ± 2e-07 | 0.0002288 ± 2e-07 | 0.0002359 ± 2e-07 | 0.0002427 ± 2e-07 | 0.0002488 ± 3e-07 | 0.0002538 ± 3e-07 | 0.0002588 ± 3e-07 | 0.000263 ± 3e-07
c1 = 3.931 | 0.000219 ± 2e-07 | 0.0002264 ± 2e-07 | 0.0002334 ± 2e-07 | 0.0002401 ± 2e-07 | 0.0002459 ± 3e-07 | 0.000251 ± 3e-07 | 0.000256 ± 3e-07 | 0.0002601 ± 3e-07

CCOS(=O)(=O)[O-].CCn1cc[n+](C)c1 [1-ethyl-3-methylimidazolium ethyl sulfate] + O
[1]
Conditions | mass density [kg/m3]
m1 = 0.005086 | 997.281 ± 10
m1 = 0.06934 | 1000.11 ± 10

molar conductivity [S·m2/mol], [2]
Conditions | c1 = 0.6368 | c1 = 1.07 | c1 = 1.527 | c1 = 1.991 | c1 = 2.48 | c1 = 3.114 | c1 = 3.767 | c1 = 4.385 | c1 = 5.086
278.15 K | 0.00496 ± 5e-06 | 0.0049391 ± 4.9e-06 | 0.0049163 ± 4.9e-06 | 0.004892 ± 4.9e-06 | 0.004877 ± 4.9e-06 | 0.0048486 ± 4.8e-06 | 0.0048261 ± 4.8e-06 | 0.00479 ± 4.8e-06 | 0.004783 ± 4.8e-06
283.15 K | 0.0057155 ± 5.7e-06 | 0.00569 ± 5.7e-06 | 0.005664 ± 5.7e-06 | 0.0056374 ± 5.6e-06 | 0.0056159 ± 5.6e-06 | 0.005585 ± 5.6e-06 | 0.005559 ± 5.6e-06 | 0.0055336 ± 5.5e-06 | 0.0055088 ± 5.5e-06
288.15 K | 0.0065118 ± 6.5e-06 | 0.00648 ± 6.5e-06 | 0.0064496 ± 6.4e-06 | 0.0064206 ± 6.4e-06 | 0.006395 ± 6.4e-06 | 0.00636 ± 6.4e-06 | 0.0063311 ± 6.3e-06 | 0.0063021 ± 6.3e-06 | 0.006274 ± 6.3e-06
293.15 K | 0.0073408 ± 7.3e-06 | 0.0073039 ± 7.3e-06 | 0.007271 ± 7.3e-06 | 0.0072366 ± 7.2e-06 | 0.0072073 ± 7.2e-06 | 0.007169 ± 7.2e-06 | 0.007135 ± 7.1e-06 | 0.0071023 ± 7.1e-06 | 0.007071 ± 7.1e-06
298.15 K | 0.0082055 ± 8.2e-06 | 0.008163 ± 8.2e-06 | 0.008125 ± 8.1e-06 | 0.008088 ± 8.1e-06 | 0.008054 ± 8.1e-06 | 0.0080112 ± 8e-06 | 0.007974 ± 8e-06 | 0.0079372 ± 7.9e-06 | 0.0079028 ± 7.9e-06
303.15 K | 0.009098 ± 9.1e-06 | 0.009052 ± 9.1e-06 | 0.0090088 ± 9e-06 | 0.008967 ± 9e-06 | 0.00893 ± 8.9e-06 | 0.008882 ± 8.9e-06 | 0.0088395 ± 8.8e-06 | 0.008799 ± 8.8e-06 | 0.008761 ± 8.8e-06
308.15 K | 0.010022 ± 1e-05 | 0.00997 ± 1e-05 | 0.0099213 ± 9.9e-06 | 0.009875 ± 9.9e-06 | 0.0098348 ± 9.8e-06 | 0.009782 ± 9.8e-06 | 0.0097357 ± 9.7e-06 | 0.009689 ± 9.7e-06 | 0.0096453 ± 9.6e-06
313.15 K | 0.01096 ± 1.1e-05 | 0.01092 ± 1.1e-05 | 0.01086 ± 1.1e-05 | 0.01081 ± 1.1e-05 | 0.01076 ± 1.1e-05 | 0.01071 ± 1.1e-05 | 0.01066 ± 1.1e-05 | 0.01061 ± 1.1e-05 | 0.01056 ± 1.1e-05
